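Exposure lasted 48 hours, with cells grown in 96-well plates and compounds tested at five concentrations. GI50: concentration for 50% inhibition of growth.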 Calls of active or inactive are those of the source. Rule as the data show it: active = GI50 up to about 1.1 µM and inactive = higher.
Legend:
Assay in all cases: NCI anticancer screen, dose series, 48 h
LOX IMVI = tested on: LOX IMVI
SN12C = tested on: SN12C
786-0 = tested on: 786-0
SK-MEL-28 = tested on: SK-MEL-28
IGROV-1 = tested on: IGROV-1
Malme-3M = tested on: Malme-3M
A549 = tested on: A549
HOP-18 = tested on: HOP-18
SF-539 = tested on: SF-539
ACHN = tested on: ACHN
HL-60 = tested on: HL-60
UACC-257 = tested on: UACC-257
OVCAR-4 = tested on: OVCAR-4
RXF 393 = tested on: RXF 393
K562 = tested on: K562
CCRF-CEM = tested on: CCRF-CEM
MOLT-4 = tested on: MOLT-4
CAKI-1 = tested on: CAKI-1
T47D = tested on: T47D
MDA-N = tested on: MDA-N

Measured: GI50

COc1nc(NC2OCC(OC(C)=O)C(OC(C)=O)C2OC(C)=O)c(/N=C\C=N\c2c(NC3OCC(OC(C)=O)C(OC(C)=O)C3OC(C)=O)nc(OC)n(C)c2=O)c(=O)n1C (stereo unspecified)
inactive: LOX IMVI > 100 µM | SN12C > 100 µM | 786-0 > 100 µM | SK-MEL-28 > 100 µM | IGROV-1 > 100 µM | Malme-3M > 100 µM | A549 > 100 µM | HOP-18 > 100 µM | SF-539 > 100 µM | ACHN > 100 µM | HL-60 > 100 µM | UACC-257 > 100 µM | OVCAR-4 > 100 µM | RXF 393 > 100 µM | K562 > 100 µM

O=C(O)CCC1CCc2cccc(OCC(=O)O)c2C1=O (stereo unspecified)
inactive: LOX IMVI > 100 µM | SN12C > 100 µM | 786-0 > 100 µM | SK-MEL-28 > 100 µM | IGROV-1 > 100 µM | A549 > 100 µM | CCRF-CEM > 100 µM | HOP-18 > 100 µM | SF-539 > 100 µM | ACHN > 100 µM | HL-60 > 100 µM | UACC-257 > 100 µM | OVCAR-4 > 100 µM | RXF 393 > 100 µM | MOLT-4 > 100 µM | CAKI-1 > 100 µM | K562 > 100 µM

O=S(=O)(O)c1ccc(-c2c3nc(c(-c4ccc(S(=O)(=O)O)cc4)c4ccc([nH]4)c(-c4ccc(S(=O)(=O)O)cc4)c4nc(c(-c5ccc(S(=O)(=O)O)cc5)c5ccc2[nH]5)C=C4)C=C3)cc1
inactive: LOX IMVI > 100 µM | SN12C > 100 µM | 786-0 > 100 µM | SK-MEL-28 16.5 µM | IGROV-1 > 100 µM | Malme-3M > 100 µM | A549 55 µM | CCRF-CEM > 100 µM | HOP-18 > 100 µM | SF-539 > 100 µM | ACHN 86.3 µM | UACC-257 > 100 µM | OVCAR-4 45.6 µM | RXF 393 19.9 µM | MOLT-4 > 100 µM | CAKI-1 > 100 µM | K562 > 100 µM

C/C=C/C=N/N(c1nnc(-c2ccccc2)c(-c2ccccc2)n1)S(=O)(=O)c1ccc(C)cc1
inactive: LOX IMVI 3.6 µM | SN12C 8.13 µM | 786-0 6.78 µM | SK-MEL-28 13.5 µM | IGROV-1 13.1 µM | Malme-3M 10.4 µM | A549 12 µM | CCRF-CEM 2.49 µM | HOP-18 14.2 µM | SF-539 11.5 µM | ACHN 11.8 µM | HL-60 2.33 µM | UACC-257 8.34 µM | OVCAR-4 13.2 µM | MOLT-4 3.18 µM | CAKI-1 16.9 µM | K562 6.37 µM

CCCCC1CC(c2cccc([N+](=O)[O-])c2)=NO1 (stereo unspecified)
inactive: SN12C > 100 µM | 786-0 > 100 µM | SK-MEL-28 > 100 µM | IGROV-1 > 100 µM | Malme-3M > 100 µM | A549 30.5 µM | CCRF-CEM 48.5 µM | HOP-18 80.4 µM | SF-539 > 100 µM | ACHN > 100 µM | HL-60 30.4 µM | UACC-257 48.3 µM | OVCAR-4 > 100 µM | MOLT-4 36.4 µM | CAKI-1 63.5 µM | K562 60.8 µM

N#Cc1ccnc(C(=O)N2CCCC2C(=O)O)c1 (stereo unspecified)
inactive: LOX IMVI > 100 µM | SN12C > 100 µM | 786-0 > 100 µM | T47D > 100 µM | SK-MEL-28 > 100 µM | IGROV-1 > 100 µM | Malme-3M > 100 µM | A549 > 100 µM | CCRF-CEM > 100 µM | SF-539 > 100 µM | ACHN > 100 µM | HL-60 > 100 µM | UACC-257 > 100 µM | OVCAR-4 > 100 µM | RXF 393 > 100 µM | MOLT-4 > 100 µM | MDA-N > 100 µM | CAKI-1 > 100 µM | K562 > 82.8 µM

CCOC(=O)c1ccc(-c2cccs2)[nH]1
inactive: LOX IMVI > 100 µM | SN12C > 100 µM | 786-0 > 100 µM | T47D 31.6 µM | SK-MEL-28 > 80.5 µM | IGROV-1 83.2 µM | Malme-3M 63.4 µM | A549 > 62.5 µM | CCRF-CEM > 81.3 µM | SF-539 > 100 µM | ACHN 78.9 µM | HL-60 38.8 µM | UACC-257 91.6 µM | OVCAR-4 31.6 µM | RXF 393 > 66.4 µM | MOLT-4 51.4 µM | MDA-N 66.8 µM | CAKI-1 > 92.5 µM | K562 71.3 µM

NC1=CN(CCCO)C2=N/C(=C\c3ccco3)C(=O)N12
inactive: LOX IMVI > 100 µM | SN12C > 100 µM | 786-0 > 100 µM | T47D > 100 µM | SK-MEL-28 > 100 µM | IGROV-1 > 100 µM | Malme-3M > 100 µM | A549 > 100 µM | CCRF-CEM > 100 µM | SF-539 > 100 µM | ACHN > 100 µM | HL-60 > 100 µM | UACC-257 48.9 µM | OVCAR-4 > 100 µM | RXF 393 > 100 µM | MOLT-4 > 100 µM | MDA-N > 100 µM | CAKI-1 > 100 µM | K562 > 100 µM

CCCCCC/C=C\CCCCCCCCCC1=CC(=O)C=C(OC)C1=O [IRISQUINONE A]
inactive: LOX IMVI 4.06 µM | SN12C 3.03 µM | 786-0 4.68 µM | T47D 2.23 µM | SK-MEL-28 11.5 µM | IGROV-1 2.23 µM | Malme-3M 12.3 µM | A549 4.06 µM | CCRF-CEM 1.57 µM | SF-539 2.05 µM | ACHN 3.18 µM | HL-60 1.88 µM | UACC-257 3.28 µM | OVCAR-4 2.05 µM | RXF 393 3.01 µM | MOLT-4 3.79 µM | MDA-N 6.5 µM | CAKI-1 3.48 µM
active: K562 0.753 µM

CCOC(=O)c1cc(C2=C(S)N(CC(C)CC)CC2)c(C(=O)CC)[nH]1 (stereo unspecified)
inactive: LOX IMVI 17.4 µM | SN12C 18.7 µM | 786-0 16.9 µM | T47D 7.53 µM | SK-MEL-28 19.5 µM | IGROV-1 20.3 µM | Malme-3M 11.1 µM | A549 25.1 µM | CCRF-CEM 4.28 µM | SF-539 12 µM | ACHN 15.3 µM | HL-60 5.36 µM | UACC-257 17.4 µM | OVCAR-4 14.5 µM | RXF 393 20.7 µM | MOLT-4 4.56 µM | MDA-N 14.3 µM | CAKI-1 12.9 µM | K562 10 µM

C[N+](C)(C)CC(=O)N/N=C\c1c(O)ccc2ccccc12
inactive: LOX IMVI 32.7 µM | SN12C 32.2 µM | 786-0 37.8 µM | T47D 32.9 µM | SK-MEL-28 48.2 µM | IGROV-1 20 µM | Malme-3M 11.9 µM | A549 > 100 µM | CCRF-CEM 27.8 µM | SF-539 31.5 µM | ACHN 32.7 µM | HL-60 14.2 µM | UACC-257 18.7 µM | OVCAR-4 32.2 µM | RXF 393 20.9 µM | MOLT-4 9.08 µM | MDA-N 42.9 µM | CAKI-1 40.9 µM | K562 31.9 µM

Ic1cccc(/C=C/CN2CCN(CCOC(c3ccccc3)c3ccccc3)CC2)c1
inactive: LOX IMVI 13.2 µM | SN12C 13.9 µM | 786-0 15.7 µM | T47D 10.6 µM | SK-MEL-28 20.8 µM | IGROV-1 19.7 µM | Malme-3M 18.9 µM | A549 17.5 µM | CCRF-CEM 6.5 µM | SF-539 17.3 µM | ACHN 44.6 µM | HL-60 8.91 µM | UACC-257 15.7 µM | OVCAR-4 17.5 µM | RXF 393 10.7 µM | MOLT-4 5.32 µM | MDA-N 17.9 µM | CAKI-1 17.5 µM | K562 4.62 µM

COC(=O)/C(C#N)=C1\NN=NN1CCCN1CCOCC1
inactive: LOX IMVI > 100 µM | SN12C > 100 µM | 786-0 > 100 µM | SK-MEL-28 > 100 µM | IGROV-1 > 100 µM | Malme-3M > 100 µM | A549 > 100 µM | CCRF-CEM > 100 µM | HOP-18 > 100 µM | SF-539 > 100 µM | ACHN > 100 µM | UACC-257 > 100 µM | RXF 393 > 100 µM | MOLT-4 > 100 µM | CAKI-1 > 100 µM | K562 > 100 µM

Cc1nc2c(o1)C(=O)c1ccccc1/C2=N/c1ccc(N2CCOCC2)cc1
inactive: LOX IMVI 2.01 µM | SN12C 3.18 µM | 786-0 22.6 µM | T47D 3.01 µM | SK-MEL-28 3.15 µM | IGROV-1 8.71 µM | Malme-3M 1.74 µM | A549 6.19 µM | CCRF-CEM 4.57 µM | SF-539 2.49 µM | ACHN 3.61 µM | HL-60 1.83 µM | UACC-257 1.94 µM | OVCAR-4 2.99 µM | MOLT-4 4.91 µM | MDA-N 1.93 µM | CAKI-1 13.2 µM | K562 3.28 µM
active: RXF 393 0.421 µM

Oc1nc(S)nc2c1CCCN2
inactive: LOX IMVI > 100 µM | SN12C > 100 µM | 786-0 > 100 µM | SK-MEL-28 > 100 µM | IGROV-1 > 100 µM | Malme-3M > 100 µM | A549 > 100 µM | CCRF-CEM > 100 µM | HOP-18 > 100 µM | ACHN > 100 µM | HL-60 > 100 µM | UACC-257 > 100 µM | RXF 393 > 100 µM | MOLT-4 > 100 µM | CAKI-1 > 100 µM | K562 > 10 µM

Source: ChEMBL document CHEMBL1201862, “PubChem BioAssay data set” (2004)
